# Measured values reported in patent US20230049115A1, “SYSTEM AND METHOD FOR TARGET THERMAL ANALYSIS IN COMPLEX FLUIDS” (Portland State University, priority 2021, published 2023).
# Where “and” joins values, the source holds several entries; their conditions need not be identical. Equal entries are not always repeated.
# Assays:
# [1] = biological target: T1, streptavidin (Streptomyces avidinii, UniProt P22629); assay: DSC thermogram shift on streptavidin-biotin binding, in buffer and in reconstituted E. coli lysate; conditions: for Streptavidin + Biotin Tm: 2 molar equivalents of biotin
# T1 construct: purchased Alfa Aesar
# Procedure: (§1) Preparation of Samples for DSC Measurements: E. coli lysate was prepared by resuspending powdered lysate in standard PBS buffer to make a 2.7 mg/mL lysate solution. The HEK923 cell lysate was the supernatant after initial centrifugation of the crude cell lysate and received in liquid form at unknown concentration. […] Streptavidin, captopril, lisinopril, and biotin were prepared in standard buffer. All samples were incubated for 24 hours at 4° C.
# (§2) DSC Measurements: DSC melting experiments were made using a CSC differential scanning microcalorimeter (now T.A. instruments, New Castle, Del.). Samples were prepared by adding specific reaction components to pre-prepared media. For DSC melting experiments, the sample heating rate was approximately 1° C./min while monitoring changes in the excess heat (microwatts) of the sample versus temperature. […] Since all experiments involved investigating interactions of ligands with proteins using DSC, we were interested in testing the sensitivity or our approach to detect proteins and protein/ligand interactions in the background solution comprised of the crude cell lysate. Consequently, all DSC measurements were made on samples in the lysate media, E. coli lysate or HEK923 supernatant, where samples were prepared. Thermograms were acquired for the complex media background, several proteins, and mixtures of these proteins with ligands, i.e. drugs or other another protein.
# (§3) Data Reduction and Analysis: Where the protein concentration was known, further refinement and normalization of the data provided the familiar DSC melting curve in the form of a plot of excess heat capacity, ΔCP, of the sample as a function of increasing temperature. Plots of ΔCP versus temperature are commonly termed DSC thermograms. In this case, the enthalpy of the transition can be estimated from the integrated area under the thermogram. These enthalpies can be used to gain valuable insight into protein structural stability (Eskew et al., Anal Biochem 2021, 612:113843). […] For these measurements, meaningful transition enthalpies cannot be determined.
# (§4) Baselines of the raw ΔCP or μW versus temperature thermograms for E. coli were determined using a three point polynomial fit, over the temperature range of the transition, which produced a nearly straight line from 40° C. to 110° C. Baselines of the raw ΔCP or μW versus temperature thermograms for HEK293 samples were determined by connecting a straight line between data points at 40° C. and 100° C. This baseline was then subtracted from the raw curves, producing baseline corrected thermograms used for further comparisons and analysis. Between initial and final temperatures, ΔCp, for proteins is known to vary from 7-10 kcal/mol·K (Watanabe et al., Pharm Res. 2001, 18:1775-1781; Shrake et al., Vox sanguinis 1984, 47:7-18). Baseline choices served to effectively remove this difference (Eskew et al., Anal Biochem 2021, 612:113843; Lang et al., Biotechnology Progress 2015, 31:62-69). […] For all experiments thermograms of the media alone served as the background that was subtracted from thermograms of samples containing drugs and/or proteins in the same media. These difference thermograms provided enhanced visualization of sample-specific changes, corresponding predominantly to the ligand/protein interactions of concern.
# Streptavidin-Biotin: Initial investigations explored streptavidin-biotin binding in reconstituted E. coli lysate. Binding behavior was examined under several conditions meant to mimic what might be encountered in an actual expression system. FIGS. 4A-4D and 5A-5D present results of this initial study. The thermogram of the E. coli lysate alone served as the background against which streptavidin-biotin binding was examined. Along with that of the media (alone) thermograms for lysate solutions containing streptavidin in different amounts, and streptavidin plus two molar equivalents of biotin in the background media solution are also shown in FIGS. 4A-4D. […]
# [2] = DSC thermogram of the protein alone (Example 1: buffer, E. coli lysate or HEK293 supernatant background subtracted); format: physicochemical
# Procedure: as §1, §2, §3, §4
# The thermogram measured for the supernatant, without ACE2 present, served as the background against which comparisons were made. […] These curves have similar shapes but there is a clear difference for the thermogram of the supernatant containing ACE2. To isolate and enhance the specific contributions to the thermogram of ACE2 protein, the background thermogram for the supernatant alone was subtracted from that for ACE2 in the supernatant. […] This observation is in precise agreement with published results of DSC measurements on unmodified ACE2, that also found two peaks at precisely the same temperatures (Voronov et al., FEBS Letters 2002, 522:77-82). […]
# [3] = test system: ACE2; conditions: previous molecular docking studies; cited from earlier work
# [4] = test system: COVID-19; conditions: cited from earlier work
# [5] = DSC melting temperature of pure proteins and DNA hairpin in standard buffer (Example 2); format: physicochemical; conditions: standard buffer pH=7.4, independent of concentration
# Procedure: Chemicals and reagents: Standard buffer for all experiments contained 150 mM NaCl, 10 mM potassium phosphate, 15 mM sodium citrate adjusted to pH=7.4 with hydrochloric acid. Pure Proteins: Human Serum Albumin (HSA) (≥99% pure, Lot number: SLBT8667) and lysozyme (recombinant, expressed in rice, Lot number: SLCH2681). The above proteins were prepared in standard buffer and stored at 4° C. for at least 24 hours before use. Concentrations of HSA and lysozyme were confirmed spectrophotometrically at A280.
# DNA: The DNA was a 20-base pair hairpin purchased from IDT and received following a standard desalting routine. […] Lyophilized DNA was resuspended in standard buffer and stored at 4° C. DNA concentration matched the manufacturer specification as determined spectrophotometrically at A260.
# DSC Measurements: DSC melting experiments were made using a CSC differential scanning microcalorimeter (now T.A. instruments, New Castle, Del.). […]
# Baselines of the raw ΔCp or μcal versus temperature thermograms were determined using a four-point polynomial fit, over the temperature range of the transition, consistent with previous methods (Eskew et al., Anal Biochem 2021, 612:113843; Koslen et al., Adv in Biol Chem 2019, 9; Eskew et al., Anal Biochem 2021, 628:114293). […]
# [6] = biological target: T2, unpurified angiotensin converting enzyme 2 (ACE2) expressed in human embryonic kidney cells (HEK293) (Homo sapiens, UniProt Q9BYF1); format: binding
# T2 construct: the expressed region for the purchased ACE2 was from Gln18-Ser740; His-tag; purchased RayBiotech Lot number: 02U2802LL; host or cells: HEK293
# [7] = 1 mg/mL Streptavidin (33%, Condition-II), E. coli lysate
# [8] = 1 mg/mL Streptavidin (control), in buffer
# [9] = 2 mg/mL Streptavidin (11%, Condition-III), E. coli lysate
# [10] = 2 mg/mL Streptavidin (33%, Condition-I), E. coli lysate
# [11] = Conditions-I and II, difference thermograms FIGS. 5A and 5B
# [12] = unpurified ACE2 in HEK293 supernatant, background subtracted (FIG. 6B)
# T1 sequence (P22629 25-183): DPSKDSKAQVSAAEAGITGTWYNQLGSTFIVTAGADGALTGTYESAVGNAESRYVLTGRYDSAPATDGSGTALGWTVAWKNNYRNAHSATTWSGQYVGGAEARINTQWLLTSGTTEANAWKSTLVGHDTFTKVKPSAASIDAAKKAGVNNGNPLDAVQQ
# T2 sequence (Q9BYF1 18-740): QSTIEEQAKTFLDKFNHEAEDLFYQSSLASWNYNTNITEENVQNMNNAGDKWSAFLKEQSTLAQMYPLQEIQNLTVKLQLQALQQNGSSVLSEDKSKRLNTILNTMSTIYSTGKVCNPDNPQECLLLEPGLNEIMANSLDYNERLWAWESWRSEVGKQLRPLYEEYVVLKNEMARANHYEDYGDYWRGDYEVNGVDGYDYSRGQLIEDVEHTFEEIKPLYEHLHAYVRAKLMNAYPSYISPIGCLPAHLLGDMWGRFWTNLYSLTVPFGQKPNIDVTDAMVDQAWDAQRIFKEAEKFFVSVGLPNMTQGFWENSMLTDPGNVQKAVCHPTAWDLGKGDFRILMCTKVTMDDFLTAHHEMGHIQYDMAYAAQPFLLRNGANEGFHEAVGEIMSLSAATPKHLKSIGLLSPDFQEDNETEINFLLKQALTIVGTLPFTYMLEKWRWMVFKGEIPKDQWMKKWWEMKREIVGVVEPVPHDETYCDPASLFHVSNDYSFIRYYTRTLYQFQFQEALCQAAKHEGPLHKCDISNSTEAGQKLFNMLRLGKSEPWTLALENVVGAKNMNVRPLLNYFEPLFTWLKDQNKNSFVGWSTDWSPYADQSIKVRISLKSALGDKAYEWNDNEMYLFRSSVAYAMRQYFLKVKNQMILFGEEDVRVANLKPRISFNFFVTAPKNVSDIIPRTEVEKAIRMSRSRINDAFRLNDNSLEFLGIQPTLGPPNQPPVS
molecule,measurement,setting,value
"O=C(O)CCCC[C@@H]1SC[C@@H]2NC(=O)N[C@@H]21 [Biotin, biotin]",Streptavidin + Biotin Tm,[1]; [7],79.96 ± 0.36 °C
same,Streptavidin + Biotin Tm,[1]; [8],79.17 ± 0.06 °C
same,Streptavidin + Biotin Tm,[1]; [9],80.71 ± 0.12 °C
same,Streptavidin + Biotin Tm,[1]; [10],81.16 ± 0.07 °C
same,shift up of streptavidin melting temperature with biotin,[1]; Conditions I-III,1-2 °C
same,shift in Tm for the dominant peak on addition of biotin,[1]; [11],~1 °C
same,temperature shift of streptavidin thermogram with biotin,[1]; in E. coli lysate at decreased concentrations,1.4 °C and 0.9 °C
same,reduction in peak height of streptavidin thermogram with biotin binding,[1]; streptavidin (1 mg/mL) + 2 molar equivalents biotin in buffer (FIG. 5D),20%
Streptavidin,Streptavidin Tm,[2]; [7],79.03 ± 0.18 °C
same,Streptavidin Tm,[2]; [8],77.39 ± 0.05 °C
same,Streptavidin Tm,[2]; [9],79.82 ± 0.10 °C
same,Streptavidin Tm,[2]; [10],79.70 ± 0.02 °C
same,melting temperature of streptavidin without biotin,[2]; Conditions I-III,around 80 °C
same,streptavidin peak temperature,[2]; [11],~79 °C
"ACE2: unpurified angiotensin converting enzyme 2 expressed in HEK293 cells, Gln18-Ser740, RayBiotech",difference thermogram peak temperature (peak assigned to C-domain),[2]; [12],55.6 °C
same,difference thermogram peak temperature (peak assigned to N-domain),[2]; [12],70.6 °C
NCCCC[C@H](N[C@@H](CCc1ccccc1)C(=O)O)C(=O)N1CCC[C@H]1C(=O)O [Lisinopril],binding to ACE2 compared with captopril (docking),[3],stronger binder to ACE2
same,inhibiting COVID-19 infection,[4],ineffective
"5′-CGGGCGCGTTTTCGCGCCCG-3′ (DNA CGGGCGCGTTTTCGCGCCCG; DNA, backbone and methylation of C not given here; hairpin) [DNA hairpin, 20-base single strand oligomer forming an intramolecular stem-loop hairpin, DNA standard molecule]",Tm,[5],94.34±0.06 °C
C[C@H](CS)C(=O)N1CCC[C@H]1C(=O)O [Captopril],binding to / effect on ACE2 from difference thermogram,[6],relatively lesser effect on ACE2
"lysozyme: lysozyme, recombinant, expressed in rice",Tm,[5],64.77±0.16 °C
